{"source": "patent US7915235B2", "about": "“High affinity ligands bind to clostridium difficile toxin A” (priority 2006, dated 2011)", "note": "Values joined by “and” are separate entries in the source; they are usually repeats but may differ in a detail not shown here. Equal values may be shown once.", "data": [{"system": "C. difficile associated diarrhea", "conditions": "per protocol population with recurrent CDAD at enrollment; vancomycin or 6 g tolevamer; cited from earlier work", "units": {"definitive recurrence rate": "%"}, "values": [{"compound": "CN[C@H](CC(C)C)C(=O)N[C@H]1C(=O)N[C@@H](CC(N)=O)C(=O)N[C@H]2C(=O)N[C@H]3C(=O)N[C@H](C(=O)N[C@H](C(=O)O)c4cc(O)cc(O)c4-c4cc3ccc4O)[C@H](O)c3ccc(c(Cl)c3)Oc3cc2cc(c3O[C@@H]2O[C@H](CO)[C@@H](O)[C@H](O)[C@H]2O[C@H]2C[C@](C)(N)[C@H](O)[C@H](C)O2)Oc2ccc(cc2Cl)[C@H]1O", "note": "[vancomycin]", "definitive recurrence rate": 27}]}, {"system": "C. difficile associated diarrhea", "conditions": "per protocol population; 125 mg vancomycin QID or 6 g tolevamer; cited from earlier work", "units": {"definitive recurrence rate confirmed by a positive toxin assay": "%"}, "values": [{"compound": "CN[C@H](CC(C)C)C(=O)N[C@H]1C(=O)N[C@@H](CC(N)=O)C(=O)N[C@H]2C(=O)N[C@H]3C(=O)N[C@H](C(=O)N[C@H](C(=O)O)c4cc(O)cc(O)c4-c4cc3ccc4O)[C@H](O)c3ccc(c(Cl)c3)Oc3cc2cc(c3O[C@@H]2O[C@H](CO)[C@@H](O)[C@H](O)[C@H]2O[C@H]2C[C@](C)(N)[C@H](O)[C@H](C)O2)Oc2ccc(cc2Cl)[C@H]1O", "note": "[vancomycin]", "definitive recurrence rate confirmed by a positive toxin assay": 19}]}, {"system": "C. difficile-associated diarrhea (CDAD)", "conditions": "oral metronidazole 500 mg TID; oral vancomycin 125 mg every 6 h; cited from earlier work", "units": {"response rates": "%"}, "values": [{"compound": "CN[C@H](CC(C)C)C(=O)N[C@H]1C(=O)N[C@@H](CC(N)=O)C(=O)N[C@H]2C(=O)N[C@H]3C(=O)N[C@H](C(=O)N[C@H](C(=O)O)c4cc(O)cc(O)c4-c4cc3ccc4O)[C@H](O)c3ccc(c(Cl)c3)Oc3cc2cc(c3O[C@@H]2O[C@H](CO)[C@@H](O)[C@H](O)[C@H]2O[C@H]2C[C@](C)(N)[C@H](O)[C@H](C)O2)Oc2ccc(cc2Cl)[C@H]1O", "note": "[vancomycin]", "response rates": "~90"}, {"compound": "Cc1ncc([N+](=O)[O-])n1CCO", "note": "[metronidazole]", "response rates": "~90"}]}, {"biological_target": "Clostridium difficile toxin A (Clostridioides difficile, UniProt P16154)", "sequence (P16154 whole entry, looked up)": "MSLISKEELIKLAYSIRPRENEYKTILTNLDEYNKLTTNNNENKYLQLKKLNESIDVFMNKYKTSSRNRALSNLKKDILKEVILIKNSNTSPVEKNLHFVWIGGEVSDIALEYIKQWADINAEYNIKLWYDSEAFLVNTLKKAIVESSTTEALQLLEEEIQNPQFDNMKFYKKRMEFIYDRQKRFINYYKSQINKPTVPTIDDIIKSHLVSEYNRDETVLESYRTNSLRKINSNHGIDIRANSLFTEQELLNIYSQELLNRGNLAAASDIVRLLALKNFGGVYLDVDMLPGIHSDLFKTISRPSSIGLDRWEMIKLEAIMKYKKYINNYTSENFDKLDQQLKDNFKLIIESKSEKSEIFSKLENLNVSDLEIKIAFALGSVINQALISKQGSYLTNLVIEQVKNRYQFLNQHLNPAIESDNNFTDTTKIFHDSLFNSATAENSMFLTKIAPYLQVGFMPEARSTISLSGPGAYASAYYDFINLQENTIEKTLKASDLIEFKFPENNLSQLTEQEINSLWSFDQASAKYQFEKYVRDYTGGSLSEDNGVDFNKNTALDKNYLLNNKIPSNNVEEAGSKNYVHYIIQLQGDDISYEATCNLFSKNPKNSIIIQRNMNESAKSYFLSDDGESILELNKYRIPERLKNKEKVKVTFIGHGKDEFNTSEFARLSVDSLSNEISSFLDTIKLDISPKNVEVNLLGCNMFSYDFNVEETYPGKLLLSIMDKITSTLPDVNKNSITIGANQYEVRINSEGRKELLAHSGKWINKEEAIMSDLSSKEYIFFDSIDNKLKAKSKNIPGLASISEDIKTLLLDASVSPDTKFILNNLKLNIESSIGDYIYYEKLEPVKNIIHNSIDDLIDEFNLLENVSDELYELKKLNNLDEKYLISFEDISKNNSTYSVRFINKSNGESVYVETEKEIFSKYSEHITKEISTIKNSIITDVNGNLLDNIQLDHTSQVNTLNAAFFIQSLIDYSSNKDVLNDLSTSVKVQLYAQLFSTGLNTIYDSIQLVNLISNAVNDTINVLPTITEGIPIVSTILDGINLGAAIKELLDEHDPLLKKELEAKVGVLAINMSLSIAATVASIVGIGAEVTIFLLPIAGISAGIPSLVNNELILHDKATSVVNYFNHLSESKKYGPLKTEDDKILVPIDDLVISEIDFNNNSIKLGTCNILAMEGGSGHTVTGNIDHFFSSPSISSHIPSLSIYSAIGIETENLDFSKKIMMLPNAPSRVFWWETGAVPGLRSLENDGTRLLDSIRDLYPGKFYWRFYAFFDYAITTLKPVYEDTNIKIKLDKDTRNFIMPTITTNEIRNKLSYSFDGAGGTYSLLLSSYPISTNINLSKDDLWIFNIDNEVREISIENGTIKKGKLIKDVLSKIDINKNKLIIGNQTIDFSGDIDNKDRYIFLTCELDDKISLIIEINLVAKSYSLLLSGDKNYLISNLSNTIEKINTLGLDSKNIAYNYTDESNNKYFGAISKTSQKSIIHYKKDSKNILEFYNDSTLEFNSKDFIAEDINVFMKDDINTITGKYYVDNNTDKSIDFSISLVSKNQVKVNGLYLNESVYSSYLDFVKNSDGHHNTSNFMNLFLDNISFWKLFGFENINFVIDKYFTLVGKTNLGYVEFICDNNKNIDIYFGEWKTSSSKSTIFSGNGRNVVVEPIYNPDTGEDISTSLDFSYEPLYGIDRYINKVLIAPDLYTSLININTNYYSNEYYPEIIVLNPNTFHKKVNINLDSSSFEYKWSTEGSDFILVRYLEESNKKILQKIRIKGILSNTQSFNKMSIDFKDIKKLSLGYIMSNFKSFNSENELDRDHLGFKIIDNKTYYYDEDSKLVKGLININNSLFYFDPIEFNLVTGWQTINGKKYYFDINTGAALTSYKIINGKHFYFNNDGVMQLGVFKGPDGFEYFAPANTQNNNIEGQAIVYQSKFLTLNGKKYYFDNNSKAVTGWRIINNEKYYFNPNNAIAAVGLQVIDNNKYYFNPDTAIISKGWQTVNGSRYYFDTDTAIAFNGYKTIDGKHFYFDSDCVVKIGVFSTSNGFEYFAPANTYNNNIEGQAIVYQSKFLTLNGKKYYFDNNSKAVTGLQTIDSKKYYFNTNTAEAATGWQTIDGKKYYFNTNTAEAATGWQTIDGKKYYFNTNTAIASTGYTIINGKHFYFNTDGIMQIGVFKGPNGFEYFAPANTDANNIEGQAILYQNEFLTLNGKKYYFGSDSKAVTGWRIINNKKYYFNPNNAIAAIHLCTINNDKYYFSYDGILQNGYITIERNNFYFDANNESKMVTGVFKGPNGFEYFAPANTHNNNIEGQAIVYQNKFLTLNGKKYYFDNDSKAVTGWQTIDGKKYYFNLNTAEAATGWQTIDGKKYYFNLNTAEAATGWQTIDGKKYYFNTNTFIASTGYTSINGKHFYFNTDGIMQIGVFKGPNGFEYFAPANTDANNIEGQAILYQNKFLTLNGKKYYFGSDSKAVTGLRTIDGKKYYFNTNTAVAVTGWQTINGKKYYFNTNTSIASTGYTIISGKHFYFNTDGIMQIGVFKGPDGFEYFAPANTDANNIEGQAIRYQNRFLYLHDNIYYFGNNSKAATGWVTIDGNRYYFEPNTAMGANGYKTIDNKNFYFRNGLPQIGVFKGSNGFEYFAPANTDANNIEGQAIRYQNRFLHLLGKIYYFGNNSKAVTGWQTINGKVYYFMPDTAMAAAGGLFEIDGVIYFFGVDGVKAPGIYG", "conditions": "toxin A applied at 200 micrograms/ml; detected with PCG4 antibody and goat anti-mouse Alexa488", "values": [{"compound": "Galb1-3(Fuca1-4)GlcNAcb1-3Galb1-4GlcNAcb-", "fluorescence (FL) signal": 29098}, {"compound": "Gala1-3Galb1-4(Fuca1-3)GlcNAcb-", "fluorescence (FL) signal": 1814}, {"compound": "CC(=O)N[C@@H]1[C@@H](O)[C@H](O[C@@H]2O[C@H](CO)[C@H](O)[C@H](O[C@@H]3O[C@H](CO)[C@H](O)[C@H](O)[C@H]3O)[C@H]2O)[C@@H](CO)O[C@H]1O", "note": "[Galb1-3Galb1-4GlcNAcb]", "fluorescence (FL) signal": 172}, {"compound": "GalNAca1-3(Fuca1-2)Galb1-4(Fuca1-3)GlcNAcb-", "fluorescence (FL) signal": 327}, {"compound": "NeuAca2-3Galb1-3GlcNAcb1-3Galb1-4GlcNAcb-", "fluorescence (FL) signal": 4435}, {"compound": "Gala1-3(Fuca1-2)Galb1-4(Fuca1-3)GlcNAcb-", "fluorescence (FL) signal": 789}, {"compound": "GalNAca1-3(Fuca1-2)Galb1-4GlcNAcb-", "fluorescence (FL) signal": 188}, {"compound": "CC(=O)N[C@@H]1[C@@H](O[C@@H]2O[C@@H](C)[C@@H](O)[C@@H](O)[C@@H]2O)[C@H](O[C@@H]2O[C@H](CO)[C@H](O)[C@H](O)[C@H]2O)[C@@H](CO)O[C@H]1O", "note": "[Lewis×, Galb1-4[Fuca1-3]GlcNAcb]", "fluorescence (FL) signal": "122 and 218"}, {"compound": "NeuAca2-3Galb1-3(Fuca1-4)GlcNAcb1-3Galb1-4(Fuca1-3)GlcNAcb-", "fluorescence (FL) signal": 14911}]}]}
